Test results: patent publication US7247617B2, “Sixteen-member macrolide antiinfective agents” (Kosan Biosciences Incorporated, priority 2004, dated 2007)

Assays:
S. aureus = assay: Biological activity against bacterial strains: S. aureus; type: cell-based, Staphylococcus aureus; design: unit not given here; settings: for Biological Activity, S. aureus ATCC6538p: strain ATCC6538p; for Biological Activity, S. aureus ATCC14154*: strain ATCC14154, macrolide resistant strain; for Biological Activity, S. aureus ATCC29213: strain ATCC29213; for Biological Activity, S. aureus ATCC33591*: strain ATCC33591, macrolide resistant strain; for Biological Activity, S. aureus ATCCBAA-39*: strain ATCCBAA-39, macrolide resistant strain; for Biological Activity, S. aureus ATCCBAA-44*: strain ATCCBAA-44, macrolide resistant strain
E. faecalis = assay: Biological activity against bacterial strains: E. faecalis; type: cell-based, Enterococcus faecalis; settings: strain ATCC51575
S. epidermidis = assay: Biological activity against bacterial strains: S. epidermidis; type: cell-based, Staphylococcus epidermidis; settings: strain ATCC12228
S. pneumoniae = assay: Biological activity against bacterial strains: S. pneumoniae; type: cell-based, Streptococcus pneumoniae; design: Biological Activity, S. pneumoniae ATCC6301 / Biological Activity, S. pneumoniae ATCC700671 / Biological Activity, S. pneumoniae ATCC700676* / Biological Activity, S. pneumoniae ATCC700677* / Biological Activity, S. pneumoniae ATCC700905* / Biological Activity, S. pneumoniae ATCC700906* / Biological Activity, S. pneumoniae ATCC49619: unit not given here; settings: for Biological Activity, S. pneumoniae ATCC6301: strain ATCC6301; for Biological Activity, S. pneumoniae ATCC49619: strain ATCC49619; for Biological Activity, S. pneumoniae ATCC700671: strain ATCC700671; for Biological Activity, S. pneumoniae ATCC700676*: strain ATCC700676, macrolide resistant strain; for Biological Activity, S. pneumoniae ATCC700677*: strain ATCC700677, macrolide resistant strain; for Biological Activity, S. pneumoniae ATCC700905*: strain ATCC700905, macrolide resistant strain; for Biological Activity, S. pneumoniae ATCC700906*: strain ATCC700906, macrolide resistant strain
Haemophilus Influenzae = assay: H. influenzae Activity; type: cell-based; settings: for potency against H. influenzae (in words): compared to compound A, OMT and Ketek

SMILES | Biological Activity, S. aureus ATCC6538p (S. aureus) | Biological Activity, S. aureus ATCC14154* (S. aureus) | Biological Activity, S. aureus ATCC29213 (S. aureus) | Biological Activity, S. aureus ATCC33591* (S. aureus) | Biological Activity, S. aureus ATCCBAA-39* (S. aureus) | Biological Activity, S. aureus ATCCBAA-44* (S. aureus) | Biological Activity, E. faecalis ATCC51575 (E. faecalis) | Biological Activity, S. epidermidis ATCC12228 (S. epidermidis) | Biological Activity, S. pneumoniae ATCC6301 (S. pneumoniae) | Biological Activity, S. pneumoniae ATCC49619 (S. pneumoniae) | Biological Activity, S. pneumoniae ATCC700671 (S. pneumoniae) | Biological Activity, S. pneumoniae ATCC700676* (S. pneumoniae) | Biological Activity, S. pneumoniae ATCC700677* (S. pneumoniae) | Biological Activity, S. pneumoniae ATCC700905* (S. pneumoniae) | Biological Activity, S. pneumoniae ATCC700906* (S. pneumoniae) | H. influenzae Activity, strain ATCC9006 (Haemophilus Influenzae) | H. influenzae Activity, strain ATCC49766 (Haemophilus Influenzae) | H. influenzae Activity, strain EH001 (Haemophilus Influenzae) | H. influenzae Activity, strain EH002 (Haemophilus Influenzae) | H. influenzae Activity, strain EH003 (Haemophilus Influenzae) | also measured
CCC1OC(=O)CC(O)C(C)C(OC2OC(C)C(O)C(N(C)C)C2O)C(CC=O)CC(C)C(=NOCCCOc2ccc3ncccc3c2)C=CC(C)=CC1COC1OC(C)C(O)C(OC)C1OC (single isomer, unassigned) [Compound BB] | 0.2 | 0.78 | 0.39 | >12.5 | >12.5 | >12.5 | >12.5 | 0.39 | 0.025 | 0.049 | 0.049 | 0.049 | 0.025 | 0.025 | >12.5 | – | – | – | – | – | –
CCC1OC(=O)CC(O)C(C)C(OC2OC(C)C(O)C(N(C)C)C2O)C(CCN2CC(C)CC(C)C2)CC(C)C(=NOCc2ccc(F)cc2)C=CC(C)=CC1COC1OC(C)C(O)C(OC)C1OC (single isomer, unassigned) [Compound Q] | 0.20 | 0.78 | 0.78 | 12.5 | >12.5 | >12.5 | >12.5 | 0.78 | 0.20 | 0.39 | 0.39 | 0.78 | 6.25 | 0.78 | 12.5 | – | – | – | – | – | –
CCC1OC(=O)CC(O)C(C)C(OC2OC(C)C(O)C(N(C)C)C2O)C(CCN2CC(C)CC(C)C2)CC(C)C(=NOCC(=O)N2CCN(c3ccccc3)CC2)C=CC(C)=CC1CO (centres unmarked) [Compound X] | 0.39 | 3.12 | 1.56 | >12.5 | >12.5 | >12.5 | >12.5 | 0.78 | 0.049 | 0.049 | 0.098 | 1.56 | >12.5 | 0.78 | >12.5 | – | – | – | – | – | –
CCC1OC(=O)CC(O)C(C)C(OC2OC(C)C(O)C(N(C)C)C2O)C(CC=O)CC(C)C(=NOCCCOc2ccc3ncccc3c2)C=CC(C)=CC1CN(C)C (single isomer, unassigned) [Compound Z] | – | – | – | – | – | – | – | – | 0.025 | 0.049 | 0.049 | 0.025 | >12.5 | 0.025 | >12.5 | 1.56 | 3.12 | 3.12 | 3.12 | 1.56 | potency against H. influenzae (in words) (Haemophilus Influenzae): improved potency against H. influenzae, to a level similar to OMT and Ketek™; activity / potency against S. pneumoniae (in words) (S. pneumoniae): essentially remained unchanged
CCC1OC(=O)CC(O)C(C)C(OC2OC(C)C(O)C(N(C)C)C2O)C(CC=O)CC(C)C(=NOCCCOc2ccc3ncccc3c2)C=CC(C)=CC1CN(C)C (single isomer, unassigned) [Compound Y] | – | – | – | – | – | – | – | – | 0.025 | 0.025 | 0.098 | 0.025 | >12.5 | 0.025 | >12.5 | 1.56 | 3.12 | 3.12 | 6.25 | 3.12 | potency against H. influenzae (in words) (Haemophilus Influenzae): improved potency against H. influenzae, to a level similar to OMT and Ketek™; activity / potency against S. pneumoniae (in words) (S. pneumoniae): essentially remained unchanged
CC[C@H]1OC(=O)[C@H](C)C(=O)[C@H](C)[C@@H](O[C@@H]2O[C@H](C)C[C@H](N(C)C)[C@H]2O)[C@](C)(OC)C[C@@H](C)C(=O)[C@H](C)[C@H]2N(CCCCn3cnc(-c4cccnc4)c3)C(=O)O[C@]12C [Ketek, telithromycin, reference compound] | – | – | – | – | – | – | – | – | – | – | – | – | – | – | – | 1.56 | 3.12 | 1.56 | 6.25 | 1.56 | –
CC[C@H]1OC(=O)[C@H](C)[C@@H](O[C@H]2C[C@@](C)(OC)[C@@H](O)[C@H](C)O2)[C@H](C)[C@@H](O[C@@H]2O[C@H](C)C[C@H](N(C)C)[C@H]2O)[C@](C)(O)C[C@@H](C)C(=O)[C@H](C)[C@@H](O)[C@]1(C)O [Ery A, erythromycin A, reference compound] | 0.098 | – | 0.20 | – | – | – | – | 0.20 | 0.025 | 0.049 | 0.049 | 6.25 | 6.25 | 3.12 | – | 1.56 | 6.25 | 3.12 | 6.25 | 3.12 | –
